Assay results published in patent US7414072B2, “Aryl 5-thio-β-d-glucopyranoside derivatives and therapeutic agents for diabetes containing the same” (Taisho Pharmaceutical Co., Ltd., priority 2002, dated 2008).
Several values for one entry are separate records, joined by “and”; a condition that tells them apart may be missing. Identical values can stand only once.

Work on CCc1ccc(Cc2cc(CO)ccc2O[C@@H]2S[C@H](CO)[C@@H](O)[C@H](O)[C@H]2O)cc1 [Compound 13, 2′-(4′-ethylbenzyl)-4′-(hydroxymethyl)phenyl 5-thio-β-D-glucopyranoside] yielded a melting point of 202.5 to 205 °C.
Molecule CS(=O)(=O)Nc1ccc(Cc2cc(Cl)ccc2O[C@@H]2S[C@H](CO)[C@@H](O)[C@H](O)[C@H]2O)cc1 [Compound 51, 4′-chloro-2′-(4′-methylsulfonylaminobenzyl)phenyl 5-thio-β-D-glucopyranoside] has a melting point of 151 to 153 °C.
CN(C)C(=O)c1ccc(Cc2ccccc2O[C@@H]2S[C@H](CO)[C@@H](O)[C@H](O)[C@H]2O)cc1 [Compound 86, 2′-(4′-N,N-dimethylaminocarbonylbenzyl)phenyl 5-thio-β-D-glucopyranoside] showed a melting point of 193.5 to 194 °C.
For O=[N+]([O-])c1ccc(Cc2cc(Cl)ccc2O[C@@H]2S[C@H](CO)[C@@H](O)[C@H](O)[C@H]2O)cc1 [Compound 41, 4′-chloro-2′-(4′-nitrobenzyl)phenyl 5-thio-β-D-glucopyranoside], the melting point was 180 to 182 °C.
CCc1ccc(Cc2ccc(OCOC)cc2O[C@@H]2S[C@H](CO)[C@@H](O)[C@H](O)[C@H]2O)cc1 [Compound 20, 2′-(4′-ethylbenzyl)-5′-(methoxymethyloxy)phenyl 5-thio-β-D-glucopyranoside] gave a melting point of 175.5 to 180 °C.
With CCc1ccc(Cc2ccccc2O[C@@H]2S[C@H](CO)[C@@H](O)[C@H](O)[C@H]2O)cc1 [Compound 1, 2′-(4′-ethylbenzyl)phenyl 5-thio-β-D-glucopyranoside] the melting point was 154 to 160 °C and 154 to 169 °C and 156.5 to 157.5 °C.
Molecule CCc1ccc(Cc2ccccc2O[C@@H]2S[C@H](COC(=O)OC)[C@@H](O)[C@H](O)[C@H]2O)cc1 [Compound 23, 2′-(4′-ethylbenzyl)phenyl 6-O-methoxycarbonyl 5-thio-β-D-glucopyranoside] has a melting point of 102 to 104.5 °C.
With CCc1ccc(Cc2cccc(O[C@@H]3S[C@H](CO)[C@@H](O)[C@H](O)[C@H]3O)c2)cc1 [Compound 49] the melting point was 132 to 134 °C.
CCc1ccc(Cc2ccc(CO)cc2O[C@@H]2S[C@H](CO)[C@@H](O)[C@H](O)[C@H]2O)cc1 [Compound 39, 2′-(4′-ethylbenzyl)-5′-(hydroxymethyl)phenyl 5-thio-β-D-glucopyranoside] showed a melting point of 206 to 211 °C.
With OC[C@H]1S[C@@H](Oc2ccc(Cl)cc2Cc2c(F)c(F)cc(F)c2F)[C@H](O)[C@@H](O)[C@@H]1O [Compound 66, 4′-chloro-2′-(2′,3′,5′,6′-tetrafluorobenzyl)phenyl 5-thio-β-D-glucopyranoside] the melting point was 204 to 211 °C.
In the case of CCSc1ccc(Cc2ccccc2O[C@@H]2S[C@H](CO)[C@@H](O)[C@H](O)[C@H]2O)cc1 [Compound 48, 2′-(4′-ethylthiobenzyl)phenyl 5-thio-β-D-glucopyranoside], the melting point is reported as 174 to 176.5 °C.
CCc1ccc(Cc2cc(C)ccc2O[C@@H]2S[C@H](CO)[C@@H](O)[C@H](O)[C@H]2O)cc1 [Compound 7, 2′-(4′-ethylbenzyl)-4′-methylphenyl 5-thio-β-D-glucopyranoside] gave a melting point of 154 to 156 °C.
In the case of COc1ccc(Cc2cc(Cl)ccc2O[C@@H]2S[C@H](CO)[C@@H](O)[C@H](O)[C@H]2O)c(OC)c1 [Compound 80, 4′-chloro-2′-(2′,4′-dimethoxybenzyl)phenyl 5-thio-β-D-glucopyranoside], the melting point is reported as 195.5 to 197 °C.
CCc1ccc(Cc2ccc(COC(C)=O)cc2O[C@@H]2S[C@H](CO)[C@@H](O)[C@H](O)[C@H]2O)cc1 [Compound 77, 5′-(acetoxymethyl)-2′-(4′-ethylbenzyl)phenyl 5-thio-β-D-glucopyranoside] gave a melting point of 158 to 160 °C.
O=C(Nc1ccccc1)c1cc(Cl)ccc1O[C@@H]1S[C@H](CO)[C@@H](O)[C@H](O)[C@H]1O [Compound 27] showed a melting point of 96 to 105 °C.
Molecule CCc1ccc(Cc2ccc(O[C@@H]3S[C@H](CO)[C@@H](O)[C@H](O)[C@H]3O)cc2)cc1 [Compound 50] has a melting point of 137 to 138.5 °C.
With OC[C@H]1S[C@@H](Oc2ccccc2Cc2ccc(F)cc2)[C@H](O)[C@@H](O)[C@@H]1O [Compound 9, 2′-(4′-fluorobenzyl)phenyl 5-thio-β-D-glucopyranoside] the melting point was 157 to 158.5 °C.
OC[C@H]1S[C@@H](Oc2ccc(Cl)cc2Cc2c(F)cccc2Cl)[C@H](O)[C@@H](O)[C@@H]1O [Compound 59, 2′-(2′-chloro-6′-fluorobenzyl)-4′-chlorophenyl 5-thio-β-D-glucopyranoside] showed a melting point of 183.5 to 185 °C.
With OC[C@H]1S[C@@H](Oc2ccc(Cl)cc2Cc2ccccc2F)[C@H](O)[C@@H](O)[C@@H]1O [Compound 44, 4′-chloro-2′-(2′-fluorobenzyl)phenyl 5-thio-β-D-glucopyranoside] the melting point was 170 to 173 °C.
With OC[C@H]1S[C@@H](Oc2ccc(Cl)cc2Cc2cccc(OC(F)(F)F)c2)[C@H](O)[C@@H](O)[C@@H]1O [Compound 69, 4′-chloro-2′-(3′-trifluoromethoxybenzyl)phenyl 5-thio-β-D-glucopyranoside] the melting point was 146 to 148 °C.
In the case of OC[C@H]1S[C@@H](Oc2ccccc2OCc2ccccc2)[C@H](O)[C@@H](O)[C@@H]1O [Compound 25], the melting point is reported as 148 to 150 °C.
Work on OCc1ccc(Cc2ccccc2O[C@@H]2S[C@H](CO)[C@@H](O)[C@H](O)[C@H]2O)cc1 [Compound 56, 2′-(4′-hydroxymethylbenzyl)phenyl 5-thio-β-D-glucopyranoside] yielded a melting point of 184 to 186.5 °C.
In the case of OC[C@H]1S[C@@H](Oc2ccccc2Cc2ccncc2)[C@H](O)[C@@H](O)[C@@H]1O [Compound 24], the melting point is reported as 179 to 180 °C.
OC[C@H]1S[C@@H](Oc2ccccc2Cc2ccc(C3CC3)cc2)[C@H](O)[C@@H](O)[C@@H]1O [Compound 90, 2′-(4′-cyclopropylbenzyl)phenyl 5-thio-β-D-glucopyranoside] gave a melting point of 148 to 148.5 °C.
Molecule COC(=O)c1ccc(Cc2cc(Cl)ccc2O[C@@H]2S[C@H](CO)[C@@H](O)[C@H](O)[C@H]2O)cc1 [Compound 40, 4′-chloro-2′-(4′-methoxycarbonylbenzyl)phenyl 5-thio-β-D-glucopyranoside] has a melting point of 74 to 76 °C.
Work on OC[C@H]1S[C@@H](Nc2ccccc2Cc2ccccc2)[C@H](O)[C@@H](O)[C@@H]1O [Compound 35] yielded a melting point of 144 to 151 °C.
Work on CC(C)c1ccc(Cc2cc(Cl)ccc2O[C@@H]2S[C@H](CO)[C@@H](O)[C@H](O)[C@H]2O)cc1 [Compound 63, 4′-chloro-2′-(4′-isopropylbenzyl)phenyl 5-thio-β-D-glucopyranoside] yielded a melting point of 146 to 148.5 °C.
For OC[C@H]1S[C@@H](Oc2ccc(Cl)cc2Cc2cccc3ccccc23)[C@H](O)[C@@H](O)[C@@H]1O [Compound 68], the melting point was 170 to 175 °C.
Work on CCc1ccc(Cc2cc(Br)ccc2O[C@@H]2S[C@H](CO)[C@@H](O)[C@H](O)[C@H]2O)cc1 [Compound 10, 4′-bromo-2′-(4′-ethylbenzyl)phenyl 5-thio-β-D-glucopyranoside] yielded a melting point of 172 to 173.5 °C.
Molecule Cc1ccc(Cc2ccccc2O[C@@H]2S[C@H](CO)[C@@H](O)[C@H](O)[C@H]2O)nc1 [Compound 36] has a melting point of 177 to 180 °C.
OC[C@H]1S[C@@H](Oc2c(Cc3c(F)cccc3Cl)cc(Cl)cc2Cc2c(F)cccc2Cl)[C@H](O)[C@@H](O)[C@@H]1O [Compound 53] gave a melting point of 112 to 118 °C.
Molecule O=C(Nc1ccccc1)c1cc2ccccc2cc1O[C@@H]1S[C@H](CO)[C@@H](O)[C@H](O)[C@H]1O [Compound 92] has a melting point of 200 to 202 °C.
CCCCCOc1ccc(Cc2cc(Cl)ccc2O[C@@H]2S[C@H](CO)[C@@H](O)[C@H](O)[C@H]2O)cc1 [Compound 72, 4′-chloro-2′-(4′-pentyloxybenzyl)phenyl 5-thio-β-D-glucopyranoside] showed a melting point of 143 to 144.5 °C.
With Cn1cc(Cc2ccccc2O[C@@H]2S[C@H](CO)[C@@H](O)[C@H](O)[C@H]2O)cn1 [Compound 55] the melting point was 148.5 to 149.5 °C.
In the case of OC[C@H]1S[C@@H](Oc2ccc(Cl)cc2Cc2ccc3ccccc3c2)[C@H](O)[C@@H](O)[C@@H]1O [Compound 71], the melting point is reported as 192 to 194 °C.
NC(=O)c1ccc(Cc2ccccc2O[C@@H]2S[C@H](CO)[C@@H](O)[C@H](O)[C@H]2O)cc1 [Compound 85, 2′-(4′-carbamoylbenzyl)phenyl 5-thio-β-D-glucopyranoside] gave a melting point of 215.5 to 216 °C.
For Nc1ccc(Cc2cc(Cl)ccc2O[C@@H]2S[C@H](CO)[C@@H](O)[C@H](O)[C@H]2O)cc1 [Compound 42, 2′-(4′-aminobenzyl)-4′-chlorophenyl 5-thio-β-D-glucopyranoside], the melting point was 206 to 208 °C.
Work on CCc1cccc(Cc2ccccc2O[C@@H]2S[C@H](CO)[C@@H](O)[C@H](O)[C@H]2O)c1 [Compound 57] yielded a melting point of 144 to 145 °C.
OC[C@H]1S[C@@H](Oc2ccc(Cl)cc2Cc2ccc(Cl)cc2Cl)[C@H](O)[C@@H](O)[C@@H]1O [Compound 70, 4′-chloro-2′-(2′,4′-dichlorobenzyl)phenyl 5-thio-β-D-glucopyranoside] gave a melting point of 172 to 174 °C.
Work on CC(=O)Nc1ccc(Cc2cc(Cl)ccc2O[C@@H]2S[C@H](CO)[C@@H](O)[C@H](O)[C@H]2O)cc1 [Compound 47, 2′-(4′-acetylaminobenzyl)-4′-chlorophenyl 5-thio-β-D-glucopyranoside] yielded a melting point of 235 to 236.5 °C.
For CCc1ccc(Cc2ccc(F)cc2O[C@@H]2S[C@H](CO)[C@@H](O)[C@H](O)[C@H]2O)cc1 [Compound 64, 2′-(4′-ethylbenzyl)-5′-fluorophenyl 5-thio-β-D-glucopyranoside], the melting point was 156 to 157 °C.
With OC[C@H]1S[C@@H](Oc2ccc(Cl)cc2Cc2ccc(-c3ccccc3)cc2)[C@H](O)[C@@H](O)[C@@H]1O [Compound 67, 4′-chloro-2′-(4′-phenylbenzyl)phenyl 5-thio-β-D-glucopyranoside] the melting point was 187 to 195 °C.
With COc1ccc(CNC(=O)c2c(O)cccc2O[C@@H]2S[C@H](CO)[C@@H](O)[C@H](O)[C@H]2O)cc1 [Compound 84, 3′-hydroxy-2′-(4′-methoxybenzylaminocarbonyl)phenyl 5-thio-β-D-glucopyranoside] the melting point was 183 to 185 °C.
